Here are results for three molecules from patent publication US8748408B2, “Methods of treatment of mitochondrial disorders” (The Regents of the University of California, priority 1999, dated 2014).

Molecules are shown by their SMILES.

Format in all cases: in vivo, human
Data set [1] in a line: Tegretol level in patient (Example 4). Conditions: both before and after starting triacetyluridine, found subtherapeutic.
In data set [2] the test system is patients with mitochondrial renal tubular acidosis (RTA). Put plainly: Treatment of patients with mitochondrial renal tubular acidosis with triacetyluridine (Example 1). The source says: Four patients with mitochondrial renal tubular acidosis (RTA) were studied. Mitochondrial RTAs often defy simple classification as proximal (type II) or distal (type I) tubulopathies, as these patients are often mosaics and express features of both phenotypes leading to hyperchloremic (non-anion gap) metabolic acidosis.
Patient #1 was a person with Leigh syndrome, lactic acidemia, and complex I deficiency who required 200 mEq/day of NaHCO3 to compensate for renal losses of alkali, and maintain serum bicarbonate levels above 20 mEq/l, 1+ proteinuria, and significant aminoaciduria with hydroxyprolinuria.
Patient #2 was a person with Leigh syndrome, and complex IV (COX) deficiency, who also required 200 mEq/day of NaHCO3.
Patient #3 was a person with Leigh syndrome, lactic acidemia, 1+ proteinuria, and pyruvate dehydrogenase (PDH) deficiency, who required up to 210 mEq/day of NaHCO3.
Patient #4 was a person with 3-hydroxyisobutyric aciduria, lactic acidemia, and encephalomyopathy, who required 468 mEq/day of NaHCO3.
Blood and urine electrolytes, creatinine, pH, urinalysis, and venous blood gases were studied before and after treatment. Quantitative urine amino acids and organic acids were also obtained. Pre-enrollment doses of oral sodium bicarbonate were continued for the first 3 days of triacetyluridine treatment, then reduced weekly as tolerated to maintain serum bicarbonate above 20 mEq/1.
Patients received triacetyluridine 2 g/m^2 PO TID.

The test system of data set [3] is child with Leigh syndrome, lactic acidemia, and renal tubular acidosis. Put plainly: Administration of triacetyluridine to a subject having Leigh syndrome (Example 5). An excerpt:
patient two was a child with Leigh syndrome, lactic acidemia, and renal tubular acidosis who suffered a hypertensive crisis and acute edema as they came out of general anesthesia for replacement of an elective percutaneous gastrostomy tube (PEG). […] They developed pneumonia as a complication of PEG and developed new Leigh syndrome lesions in the spinal cord, midbrain, and thalamus. They drifted into a coma 3 days after PEG placement. The person received emergency treatment with triacetyluridine.

The subject of data set [4] is child with refractory epilepsy and multiple mitochondrial DNA deletion syndrome. Put plainly: Administration of triacetyluridine to a subject having multiple mitochondrial DNA deletion syndrome (Example 4). Conditions: patient. An excerpt:
patient one is a child with refractory epilepsy. As a 5th grader they were able to play little league baseball. […] This disorder produces multiple deleted copies of mitochondrial DNA and can lead to a number of symptoms. SK began deteriorating. They had 2 ICU admissions for crescendo epilepsy, and had 7 changes in their anticonvulsant regimen in the succeeding 4 months. They were having 8-10 grand-mal seizures every night, leaving them postictal for much of the morning. They also developed upper lip automaticity. The patient was initially administered 0.05 g/kg/day of triacetyluridine for one week, followed by 0.16 g/kg/day for 1 week, and then 0.24 g/kg/day.

Data set [5] concerns child with MARIAHS syndrome. The source says:
CMZ is a child with mitochondrial ataxia, recurrent infections, aphasia, hypouricemia/hypomyelination, and seizures ([…] syndrome), cared for […]. Symptoms indicate a primary deficiency in the enzyme dihydroorotate dehydrogenase, the rate-limiting step in de novo pyrimidine synthesis, which could lead to a functional dependence on exogenous uridine. […] treatment began with uridine. […] the treating agent was switched to triacetyluridine because it is a more easily absorbed form of uridine.

Data set [6] relates to adult with familial history of mitochondrial disease. The source says: KL is an adult who first came to the investigator's attention after the diagnosis of their son with mitochondrial disease leading to stroke-like episodes, ataxia, and encephalopathy. Before administration of triacetyluridine, KL suffered with recurrent pyelonephritis, infection-association neutropenia, […] migraines, grand-mal seizures, neurogenic bowel and bladder requiring QID catheterization, biliary […], dysphagia and pc cough, peripheral and autonomic polyneuropathy, painful paresthesias, cardiac conduction disturbances with SVT and tachy-brady syndrome, severe orthostatic hypotension, orthopnea, and poor functional capacity with inability to climb a flight of stairs without stopping to rest, and declining cognitive performance with episodes of clouded sensorium and poor memory that would last hours to days. KL started triacetyluridine at a dose of 0.05 g/kg/d.

Where [7] appears, read: Patient #1, triacetyluridine 2 g/m^2 PO TID.
[8] abbreviates: patient three, started at 0.05 g/kg/d.

`NC(=O)N1c2ccccc2C=Cc2ccccc21` [tegretol] registered a tegretol level in data set [1] of 4 µg/mL.

Take `CC(=O)OC[C@H]1O[C@@H](n2ccc(=O)[nH]c2=O)[C@H](OC(C)=O)[C@@H]1OC(C)=O` [triacetyluridine, 2′, 3′, 5′-tri-O-acetyl-1-β-D-uridine]: the “time to complete correction of RTA” value in data set [2] (Patient #1 (Leigh syndrome, complex I deficiency), triacetyluridine 2 g/m^2 PO TID) was at most 24 h. Further, in data set [2] (setting [7]), the “serum bicarbonate maintained without any further oral bicarbonate” value is “more than 20 mEq/l” and the “time to complete resolution of hydroxyprolinuria” value was at most 2 weeks. The urinary bicarbonate losses in data set [2] (Patient #2 (initially 99 mEq/l), after 36 hours on treatment, 2 g/m^2 PO TID) is reported as below 5 mEq/l. For the same molecule, in data set [2] (Patient #2, after 3 weeks of treatment, 2 g/m^2 PO TID), the “share of pre-enrollment dose of bicarbonate needed to maintain normal serum bicarbonate” value is reported as 25%. The molecule also showed a urinary bicarbonate losses in data set [2] (Patient #3 (59 mEq/l prior to therapy), after 36 hours of treatment, 2 g/m^2 PO TID) below 5 mEq/l. Besides, the “share of previous dose of bicarbonate required” value in data set [2] (Patient #3, after 3 weeks of treatment, 2 g/m^2 PO TID) turned out to be 10%. In addition, in data set [2] (Patient #4, following 1 week of treatment, 2 g/m^2 PO TID), the “reduction in oral bicarbonate requirement” value came out at 35%. The “patients in whom renal tubular acidosis was corrected or dramatically improved” value in data set [2] (patients with mitochondrial disease, 2 g/m^2 PO TID) is 4 out of 4. Also, the aminoaciduria entry in data set [3] (patient two) was “improved”. Also, in data set [3] (patient two (before: 25 mEg/kg/day)), the “need for supplemental bicarbonate” value is recorded as “did not require any further supplemental bicarbonate”. For the same molecule, the “time to complete resolution of renal tubular acidosis” value in data set [3] (patient two, emergency treatment with triacetyluridine) was at most 12 h. In addition, in data set [3] (patient two, in coma before treatment), the clinical outcome was “never awoke from their coma, and died after a 4 week terminal illness”. In data set [3] (patient two, while receiving continuous parenteral nutrition), the “time until plasma amino acids returned to normal ranges” value was at most 2 h. Further, in data set [4] (after increase to 0.24 g/kg/d with 0.5 g calcium pyruvate TID added, transient escalation, then after 3 days), the nocturnal seizure activity result is recorded as “decreased to zero”. For the same molecule, the “seizures and involuntary lip movements” value in data set [4] (first three days, 0.05 g/kg/day) was “stopped completely”. Further, the functional outcome in data set [4] (for several weeks) is “able to return to school and play little league baseball again”. Moreover, the “overall condition and symptomotology (conclusion)” value in data set [5] (MARIAHS syndrome patient) is “dramatic improvement in the patient's condition, and a marked reduction in symptomotology”. In addition, the toxicity result in data set [5] (human, in vivo) is reported as “no biochemical, hematologic, or clinical toxicity”. Also, in data set [5] (patient four, uridine, then triacetyluridine), the truncal ataxia result is recorded as “Mild truncal ataxia persists”. Also, the language and gait entry in data set [5] (patient four, within 2 months of a dose increase to 0.2 g/kg/day) was “rapid increase in expressive language acquisition and a narrowing of their previous broad-based, ataxic gait”. Also, in data set [6] (human, in vivo), the cystic breast disease entry is reported as “flared slightly”, the menstrual cycle result is “returned to normal” and the menstrual cycles result was “shortened from every 4 weeks to every 2 weeks”. The “I&O catheterization required” value in data set [6] (patient three (before: QID catheterization), started at 0.05 g/kg/d) is on record as 1-2 times a week. For the same molecule, in data set [6] (patient three, after 6 weeks of triacetyluridine), the functional capacity entry is recorded as “able to walk a full mile”. Also, in data set [6] (setting [8]), the “pain of biliary dyssynergia” value is on record as “gone”; the painful paresthesias entry is recorded as “gone, although some numbness persists”; the “seizures and migraine since starting treatment” value is recorded as “has not had a seizure or migraine”; the sensorium result is given as “Her sensorium has cleared”. The tachy-brady syndrome result in data set [6] (setting [8]) is “persists”.

On to `O=c1ccn([C@@H]2O[C@H](CO)[C@@H](O)[C@H]2O)c(=O)[nH]1` [uridine, reference compound], for which the “follow-up brain MRI, white matter disease” value in data set [5] (patient four, after 20 months on uridine) is given as “no progression in their white matter disease”.
